Measurements published in US12252484B2, “Pyrazolopyridine compounds for the treatment of autoimmune disease” (Hoffmann-La Roche Inc., priority 2018, dated 2025).

These molecules were tested against T1, human TLR8 (Homo sapiens, UniProt Q9NR97) (assay: HEK293-Blue-hTLR-8 cells assay (SEAP reporter, R848 stimulation)). Conditions: HEK293-Blue-hTLR-8 cells, R848 ligand, 20 hrs incubation; read-out: TLR8 IC50.
T1 sequence (Q9NR97 27-1041): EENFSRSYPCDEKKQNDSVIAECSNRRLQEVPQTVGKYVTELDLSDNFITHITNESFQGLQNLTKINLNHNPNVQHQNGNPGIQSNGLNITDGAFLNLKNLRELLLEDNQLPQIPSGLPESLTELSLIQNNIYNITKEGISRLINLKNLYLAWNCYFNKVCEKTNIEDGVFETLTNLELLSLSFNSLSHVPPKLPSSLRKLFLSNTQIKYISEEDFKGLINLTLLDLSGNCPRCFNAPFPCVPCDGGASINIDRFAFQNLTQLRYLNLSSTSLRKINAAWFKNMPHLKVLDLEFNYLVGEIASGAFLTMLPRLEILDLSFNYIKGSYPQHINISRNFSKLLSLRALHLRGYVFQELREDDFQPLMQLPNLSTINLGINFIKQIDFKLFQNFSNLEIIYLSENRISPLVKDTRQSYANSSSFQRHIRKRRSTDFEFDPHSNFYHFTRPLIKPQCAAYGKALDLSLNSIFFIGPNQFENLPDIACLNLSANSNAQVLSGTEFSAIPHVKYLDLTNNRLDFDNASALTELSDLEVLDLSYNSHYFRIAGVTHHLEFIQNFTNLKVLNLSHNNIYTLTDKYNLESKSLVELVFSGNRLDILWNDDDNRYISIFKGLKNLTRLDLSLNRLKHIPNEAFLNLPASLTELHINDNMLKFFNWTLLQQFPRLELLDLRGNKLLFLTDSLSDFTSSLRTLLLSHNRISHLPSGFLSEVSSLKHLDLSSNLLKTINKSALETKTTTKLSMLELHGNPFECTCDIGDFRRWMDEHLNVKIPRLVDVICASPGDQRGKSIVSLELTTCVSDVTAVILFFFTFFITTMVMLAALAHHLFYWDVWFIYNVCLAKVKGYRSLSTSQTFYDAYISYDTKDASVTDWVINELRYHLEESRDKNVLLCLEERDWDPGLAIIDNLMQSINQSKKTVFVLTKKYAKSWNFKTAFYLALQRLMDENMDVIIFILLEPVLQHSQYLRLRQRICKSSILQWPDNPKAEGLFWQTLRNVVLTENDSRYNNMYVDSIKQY
Type: cell-based
Protocol: The following tests were carried out in order to determine the activity of the compounds of formula (I) in HEK293-Blue-hTLR-7/8/9 cells assay.
HEK293-Blue-hTLR-8 Cells Assay:
A stable HEK293-Blue-hTLR-8 cell line was purchased from InvivoGen (Cat. #: hkb-htlr8, San Diego, California, USA). These cells were originally designed for studying the stimulation of human TLR8 by monitoring the activation of NF-κB. A SEAP (secreted embryonic alkaline phosphatase) reporter gene was placed under the control of the IFN-β minimal promoter fused to five NF-κB and AP-1-binding sites. The SEAP was induced by activating NF-κB and AP-1 via stimulating HEK-Blue hTLR8 cells with TLR8 ligands. Therefore the reporter expression was declined by TLR8 antagonist under the stimulation of a ligand, such as R848, for incubation of 20 hrs. The cell culture supernatant SEAP reporter activity was determined using QUANTI-Blue™ kit (Cat. #: rep-qb1, Invivogen, San Diego, Ca, USA) at a wavelength of 640 nm, a detection medium that turns purple or blue in the presence of alkaline phosphatase.
HEK293-Blue-hTLR8 cells were incubated at a density of 250,000˜450,000 cells/mL in a volume of 170 μL in a 96-well plate in Dulbecco's Modified Eagle's medium (DMEM) containing 4.5 g/L glucose, 50 U/mL penicillin, […], […], 2 mM L-glutamine, 10% (v/v) heat-inactivated fetal bovine serum with addition of 20 μL test compound in a serial dilution in the presence of final DMSO at 1% and 10 μL of 60 uM R848 in above DMEM, perform incubation under 37° C. in a CO2 incubator for 20 hrs. Then 20 μL of the supernatant from each well was incubated with 180 μL Quanti-blue substrate solution at 37° C. for 2 hrs and the absorbance was read at 620˜655 nm using a spectrophotometer. The signalling pathway that TLR8 activation leads to downstream NF-κB activation has been widely accepted, and therefore similar reporter assay was modified for evaluating TLR8 antagonist.

Going from `C[C@@H]1CN(c2ccc(C#N)n3nccc23)C[C@H](C(=O)NC2CCN(C)CC2)O1` [Example 1, (2R,6R)-4-(7-cyanopyrazolo[1,5-a]pyridin-4-yl)-6-methyl-N-(1-methyl-4-piperidyl)morpholine-2-carboxamide] to `C[C@@H]1CN(c2ccc(C#N)n3nccc23)C[C@H](C(=O)NC2CCOCC2)O1` [Example 4, (2R,6R)-4-(7-cyanopyrazolo[1,5-a]pyridin-4-yl)-6-methyl-N-tetrahydropyran-4-yl-morpholine-2-carboxamide], the IC50 rises from 7 nM to 910 nM (130-fold). The first is the more potent here.

Compared with `C[C@@H]1CN(c2ccc(C#N)n3nccc23)C[C@H](C(=O)N[C@H]2CNC[C@H]2F)O1` [Example 2, (2R,6R)-4-(7-cyanopyrazolo[1,5-a]pyridin-4-yl)-N-[(3S,4R)-4-fluoropyrrolidin-3-yl]-6-methyl-morpholine-2-carboxamide], `C[C@@H]1CN(c2ccc(C#N)n3nccc23)C[C@H](C(=O)NC2CNC[C@H]2F)O1` (stereo partly drawn) [Example 5, Cis-(2R,6R)-4-(7-cyanopyrazolo[1,5-a]pyridin-4-yl)-6-methyl-N-(4-fluoropyrrolidin-3-yl) morpholine-2-carboxamide] is 3.4-fold lower in IC50: 160 nM for the first, 47 nM for the second.

Going from `C[C@@H]1CN(c2ccc(C#N)n3nccc23)C[C@H](C(=O)NC2CC3(CNC3)C2)O1` [Example 3, (2R,6R)-N-(2-azaspiro[3.3]heptan-6-yl)-4-(7-cyanopyrazolo[1,5-a]pyridin-4-yl)-6-methyl-morpholine-2-carboxamide] to `C[C@@H]1CN(c2ccc(C#N)n3nccc23)C[C@H](C(=O)NC2CCNC2)O1` (stereo partly drawn) [Example 25, (2R,6R)-4-(7-cyanopyrazolo[1,5-a]pyridin-4-yl)-6-methyl-N-pyrrolidin-3-yl-morpholine-2-carboxamide], the IC50 rises from 95 nM to 610 nM (6.4-fold).

Compared with `C[C@@H]1CN(c2ccc(C#N)n3nccc23)C[C@H](C(=O)NC2CCCNCC2)O1` (stereo partly drawn) [Example 6, (2R,6R)-N-(azepan-4-yl)-4-(7-cyanopyrazolo[1,5-a]pyridin-4-yl)-6-methyl-morpholine-2-carboxamide], `C[C@@H]1CN(c2ccc(C#N)n3nccc23)C[C@H](C(=O)NC2CCNCC2)O1` [Example 24, (2R,6R)-4-(7-cyanopyrazolo[1,5-a]pyridin-4-yl)-6-methyl-N-(4-piperidyl)morpholine-2-carboxamide] is 3.4-fold higher in IC50: 11 nM for the first, 37 nM for the second.

First: C[C@@H]1CN(c2ccc(C#N)n3nccc23)C[C@H](C(=O)NCC2CN(C)CCO2)O1 (stereo partly drawn) [Example 7, (2R,6R)-4-(7-cyanopyrazolo[1,5-a]pyridin-4-yl)-6-methyl-N-[(4-methylmorpholin-2-yl)methyl]morpholine-2-carboxamide]
Second: COCCNC(=O)[C@H]1CN(c2ccc(C#N)n3nccc23)C[C@@H](C)O1 [Example 9, (2R,6R)-4-(7-cyanopyrazolo[1,5-a]pyridin-4-yl)-N-(2-methoxyethyl)-6-methyl-morpholine-2-carboxamide]
The IC50 of the first is 17-fold lower: 50 nM for the first, 860 nM for the second.

Going from `C[C@@H]1CN(c2ccc(C#N)n3nccc23)C[C@H](C(=O)N2CC(N)C2)O1` [Example 8, 4-[(2R,6R)-2-(3-aminoazetidine-1-carbonyl)-6-methyl-morpholin-4-yl]pyrazolo[1,5a]pyridine-7-carbonitrile] to `C[C@@H]1CN(c2ccc(C#N)n3nccc23)C[C@H](C(=O)NCC2CNCC2(F)F)O1` (stereo partly drawn) [Example 18, (2R,6R)-4-(7-cyanopyrazolo[1,5-a]pyridin-4-yl)-N-[(4,4-difluoropyrrolidin-3-yl)methyl]-6-methyl-morpholine-2-carboxamide], the IC50 falls from 520 nM to 100 nM (5.2-fold).

Going from `C[C@@H]1CN(c2ccc(C#N)n3nccc23)C[C@H](C(=O)NC23CC4CC(CC(C4)C2)C3)O1` [Example 12, (2R,6R)-N-(1-adamantyl)-4-(7-cyanopyrazolo[1,5-a]pyridin-4-yl)-6-methyl-morpholine-2-carboxamide] to `C[C@@H]1CN(c2ccc(C#N)n3nccc23)C[C@H](C(=O)NC23CC(CO)(C2)C3)O1` [Example 15, (2R,6R)-4-(7-cyanopyrazolo[1,5-a]pyridin-4-yl)-N-[3-(hydroxymethyl)-1-bicyclo[1.1.1]pentanyl]-6-methyl-morpholine-2-carboxamide], the IC50 rises from 320 nM to 710 nM (2.2-fold).

Going from `CCC(O)CNC(=O)[C@H]1CN(c2ccc(C#N)n3nccc23)C[C@@H](C)O1` (stereo partly drawn) [Example 13, (2R,6R)-4-(7-cyanopyrazolo[1,5-a]pyridin-4-yl)-N-(2-hydroxybutyl)-6-methyl-morpholine-2-carboxamide] to `C[C@@H]1CN(c2ccc(C#N)n3nccc23)C[C@H](C(=O)NC(C)(C)CO)O1` [Example 16, (2R,6R)-4-(7-cyanopyrazolo[1,5-a]pyridin-4-yl)-N-(2-hydroxy-1,1-dimethyl-ethyl)-6-methyl-morpholine-2-carboxamide], the IC50 falls from 570 nM to 210 nM (2.7-fold).

First: C[C@@H]1CN(c2ccc(C#N)n3nccc23)C[C@H](C(=O)NC2CC3CCCC(C2)N3)O1 (stereo partly drawn) [Example 14, (2R,6R)-N-(9-azabicyclo[3.3.1]nonan-3-yl)-4-(7-cyanopyrazolo[1,5-a]pyridin-4-yl)-6-methyl-morpholine-2-carboxamide]
Second: C[C@@H]1CN(c2ccc(C#N)n3nccc23)C[C@H](C(=O)NC2CC3CCC(C2)N3)O1 (stereo partly drawn) [Example 23, Exo-(2R,6R)-N-[8-azabicyclo[3.2.1]octan-3-yl]-4-(7-cyanopyrazolo[1,5-a]pyridin-4-yl)-6-methyl-morpholine-2-carboxamide]
The IC50 of the first is 2.5-fold lower: 30 nM for the first, 74 nM for the second. The first is the more potent here.

Compared with `CCC(C)(C)NC(=O)[C@H]1CN(c2ccc(C#N)n3nccc23)C[C@@H](C)O1` [Example 17, (2R,6R)-4-(7-cyanopyrazolo[1,5-a]pyridin-4-yl)-N-(1,1-dimethylpropyl)-6-methyl-morpholine-2-carboxamide], `C[C@@H]1CN(c2ccc(C#N)n3nccc23)C[C@H](C(=O)NC2(C)CCNCC2)O1` [Example 19, (2R,6R)-4-(7-cyanopyrazolo[1,5-a]pyridin-4-yl)-6-methyl-N-(4-methyl-4-piperidyl)morpholine-2-carboxamide] is 3.7-fold lower in IC50: 100 nM for the first, 27 nM for the second.

Compared with `C[C@@H]1CN(c2ccc(C#N)n3nccc23)C[C@H](C(=O)N[C@H]2CC[C@@H](O)CC2)O1` [Example 20, Cis-(2R,6R)-4-(7-cyanopyrazolo[1,5-a]pyridin-4-yl)-N-(4-hydroxycyclohexyl)-6-methyl-morpholine-2-carboxamide], `C[C@@H]1CN(c2ccc(C#N)n3nccc23)C[C@H](C(=O)N[C@H]2CC[C@H](O)CC2)O1` [Example 21, Trans-(2R,6R)-4-(7-cyanopyrazolo[1,5-a]pyridin-4-yl)-N-(4-hydroxycyclohexyl)-6-methyl-morpholine-2-carboxamide] is 3-fold higher in IC50: 190 nM for the first, 570 nM for the second.

Going from `C[C@@H]1CN(c2ccc(C#N)n3nccc23)C[C@H](C(=O)NC2CC3COCC(C2)N3)O1` (stereo partly drawn) [Example 22, Endo-(2R,6R)-4-(7-cyanopyrazolo[1,5-a]pyridin-4-yl)-6-methyl-N-[3-oxa-9-azabicyclo[3.3.1]nonan-7-yl]morpholine-2-carboxamide] to `C[C@@H]1CN(c2ccc(C#N)n3nccc23)C[C@H](C(=O)NC2C3CCC2CNC3)O1` (stereo partly drawn) [Example 26, (2R,6R)-N-(3-azabicyclo[3.2.1]octan-8-yl)-4-(7-cyanopyrazolo[1,5-a]pyridin-4-yl)-6-methyl-morpholine-2-carboxamide], the IC50 rises from 25 nM to 93 nM (3.7-fold). The first is the more potent here.
